Data from patent US12458702B2 (NATIONAL TAIWAN UNIVERSITY, priority 2022, dated 2025).
Read-outs that look alike come from different tables or passages of the source.

Tests used:
HCT-116 = assay: Cytotoxicity by SRB assay in HCT-116 cells; format: cell-based, human
Method: (§1) The fraction of cell survival was calculated as follows. Survival fraction=(OD treated−blank)/(OD control−blank). […] Each experiment was repeated three times.

[1] = system: CRC cell lines HCT-116 and HT-29; assay: Cytotoxicity against CRC cell lines, summary over both lines (SRB assay); format: cell-based, human; details: HCT-116 and HT-29, with or without GSH
Method: as §1

GLUT-1 = assay: 2-NBDG uptake assay in COS-7 cells that overexpress GLUT-1; format: cell-based; details: 50 μM and 100 μM
Method: COS-7 cells were seeded in 96-well culture plates and grown in low-glucose Dulbecco's Modified Eagle's medium supplemented with 10% fetal bovine serum and 2 mM L-glutamine for 24 h. After washing with Krebs Ringer bicarbonate buffer (KRB) (10 mM HEPES, 129 mM NaCl, 4.7 mM KCl, 2 mM CaCl2) and 1.2 mM MgSO4, 1.2 mM KH2PO4, 5 mM NaHCO3, pH 7.4), cells were incubated with the compounds to be tested in KRB containing 2-NBDG (200 μM) for 90 min at 37° C. in a 5% CO2 atmosphere, and then washed twice with KRB and lysed with lysis buffer (1% Nonidet P-40, 1% sodium deoxycholate, 40 mM KCl, and 20 mM Tris, pH 7.4). Finally, the lysates were transferred to black 96-well plates and fluorescence intensity was detected with a Multi-Mode Microplate Reader (SpectraMax Paradigm, Beckman Coulter, USA) using an excitation wavelength of 475 nm and an emission wavelength of 550 nm.

HT-29 [2] = assay: Cytotoxicity by SRB assay in HT-29 cells
Method: (§2) Cancer cell lines were obtained from ATCC unless otherwise noted. HT-29 and HCT-116 cells were cultured in Dulbecco's Modified Eagle Medium (DMEM, Thermo Fisher Scientific) with 10% fetal bovine serum (FBS, Thermo Fisher Scientific) and 1% antibiotic-antimycotic (Thermo Fisher Scientific).
(§3) Briefly, CRC cells were seeded at a density of 5×10^3 cells/well in 96-well microtiter plates (100 μL/well), separated into two groups with or without GSH. After incubation for 24 hours, the culture medium was replaced by fresh medium (100 μL). […] After incubation, 10% cold trichloroacetic acid was gently added to each well and incubated at 4° C. for 1 h. The medium was removed, carefully washed with water, and dried at room temperature. […] The optical density (O.D.) was measured at 510 nm with Multi-Mode Microplate Reader (SpectraMax Paradigm, Beckman Coulter, U.S.). The fraction of cell survival was calculated as follows. Survival fraction=(OD treated−blank)/(OD control−blank). […] Each experiment was repeated three times.

[3] = system: orthotopic CRC mice model; assay: Orthotopic AOM/DSS-induced CRC mice model, tumor area; format: in vivo, BALB/c mice; details: SN-38 series; i.v. once every two days for two weeks; 40 mg/kg vs irinotecan 40 mg/kg
Method: Azoxymethane (AOM)-induced murine CRC model was applied to model human CRC. BALB/c mice (6 weeks of age, male) were intraperitoneally (i.p.) injected once every two weeks with AOM (10 mg/kg body weight) or the PBS vehicle. Seven days after each AOM injection, 2% dextran sulfate sodium (DSS) was given in the drinking water for four days, followed by 3 days of regular water. This cycle was repeated three times. The mice were randomly divided into eight groups (n=5), on day 60 after the first AOM treatment. […] Tumor volumes and body weights were recorded at sacrifice. The tumors were counted under a dissecting microscope, and the area covered by tumors was measured by imaging software (AxioVision LE 4.8.2.0).

HT-29 [4] = system: HT-29
Method: as §2, §3

[5] = Homo sapiens, HT-29, 48 h, read-out: IC50 HT-29

Structure (SMILES) | IC50 (HCT-116; Homo sapiens, HCT-116, read-out: IC50 HCT-116 5 mM GSH, 48 h, 5 mM GSH) [µM] | IC50 (HCT-116; Homo sapiens, HCT-116, read-out: IC50 HCT-116 5 mM GSH, 72 h, prepared in DMA, 5 mM GSH) [µM] | IC50 (HCT-116; Homo sapiens, HCT-116, 48 h, prepared in DMSO, read-out: IC50 HCT-116) [µM] | IC50 (HCT-116; Homo sapiens, HCT-116, 48 h, w/o GSH, read-out: IC50 HCT-116 w/o GSH) [µM] | IC50 (HCT-116; Homo sapiens, HCT-116, 72 h, prepared in DMA, w/o GSH, read-out: IC50 HCT-116 w/o GSH) [µM] | cytotoxicity against CRC cell lines, in words [1] | inhibition of GLUT-1 activity (2-NBDG uptake), in words (GLUT-1) | IC50 (HT-29 [2]; [5]) [µM] | IC50 (HT-29 [2]; Homo sapiens, HT-29, 48 h, read-out: IC50 HT-29 5 mM GSH) [µM] | IC50 (HT-29 [2]; Homo sapiens, HT-29, 48 h, read-out: IC50 HT-29 w/o GSH) [µM] | IC50 (HT-29 [2]; read-out: IC50 HT-29 5 mM GSH, 48 h, prepared in DMA, 5 mM GSH) [µM] | IC50 (HT-29 [2]; read-out: IC50 HT-29 w/o GSH, 48 h, prepared in DMA, w/o GSH) [µM] | IC50 (HCT-116; 48 h, prepared in DMSO, read-out: IC50 HCT-116) [µM] | IC50 (HCT-116; Homo sapiens, HCT-116, 48 h, 48 h, prepared in DMSO, read-out: IC50 HCT-116) [µM] | anti-tumor efficacy (tumor area), in words [3] | cytotoxicity in HT-29 cell line, in words (HT-29 [4])
O=C(CCc1ccc(O)cc1)c1c(O)cc(OCCOCCOCCS)cc1O[C@@H]1O[C@H](CO)[C@@H](O)C(O)[C@H]1O (stereo partly drawn) [Compound 16, 1-(2-Hydroxy-4-(2-(2-(2-mercaptoethoxy)ethoxy)ethoxy)-6-(((2S,3R,5S,6R)-3,4,5-trihydroxy-6-(hydroxymethyl)tetrahydro-2H-pyran-2-yl)oxy)phenyl)-3-(4-hydroxyphenyl)propan-1-one] | > 100 | > 100 | > 100 | > 100 | > 100 | did not exhibit any inhibitory activity | not able to inhibit GLUT-1 | > 100 | > 100 | > 100 | > 100 | > 100 |  |  |  | 
CCc1c2c(nc3ccc(OCc4ccc(NC(=O)[C@H](CCCNC(N)=O)NC(=O)[C@@H](NC(=O)CCCCN5C(=O)CC(SCCOCCOCCOc6cc(O)c(C(=O)CCc7ccc(O)cc7)c(O[C@@H]7O[C@H](CO)[C@@H](O)[C@H](O)[C@H]7O)c6)C5=O)C(C)C)cc4)cc13)-c1cc3c(c(=O)n1C2)COC(=O)[C@]3(O)CC (some centres unmarked) [Compound 37] |  |  |  |  |  |  |  | > 100 |  |  |  |  | 3.25 ± 0.42 | 3 to 7 | ameliorated the tumor area | less sensitive
